The values below are quoted from earlier work in patent publication EP0983068B1, “THE USE OF 1,2,4-TRIAZOLO 1,5-c]PYRIMIDINE HETEROCYCLIC ANALOGUES FOR THE PREPARATION OF MEDICAMENTS USEFUL FOR THE TREATMENT OF CEREBROVASCULAR DISTURBANCES” (SCHERING-PLOUGH S.p.A., priority 1997, dated 1998).

In the series the test system is cerebral ischemia. To be noted: Life Sciences, 55, 61-65, 1994; Brain Research 705, 79-84, 1995.

On to CP66713, for which the “effect in cerebral ischemia animal models” value is “act favourably”.
